Data published in US20110105515A1, “TARGETING THE ONCOPROTEIN NUCLEOPHOSMIN” (President and Fellows of Harvard College, priority 2007, published 2011).

How the values were obtained:
[1] = tested on: HL-60(TB); test: cells; conditions: Homo sapiens, HL-60, 48 h; for CC50: read-out: LC50
[2] = tested on: MOLT-4; test: cells; conditions: Homo sapiens, MOLT-4, 48 h; for CC50: read-out: LC50
[3] = tested on: SR; test: cells; conditions: Homo sapiens, 48 h
[4] = tested on: A549/ATCC; test: cells; conditions: Homo sapiens, A549, 48 h; for CC50: read-out: LC50
[5] = tested on: EKVX; test: cells; conditions: Homo sapiens, 48 h; for CC50: read-out: LC50
[6] = tested on: NCI-H23; test: cells; conditions: Homo sapiens, NCI-H23, 48 h; for CC50: read-out: LC50
[7] = tested on: NCI-H522; test: cells; conditions: Homo sapiens, NCI-H522, 48 h; for CC50: read-out: LC50
[8] = tested on: COLO 205; test: cells; conditions: Homo sapiens, COLO 205, 48 h; for CC50: read-out: LC50
[9] = tested on: SK-MEL-28; test: cells; conditions: Homo sapiens, SK-MEL-28, 48 h; for CC50: read-out: LC50
[10] = tested on: 786-0; test: cells; conditions: Homo sapiens, 786-0, 48 h; for CC50: read-out: LC50
[11] = tested on: A498; test: cells; conditions: Homo sapiens, A498, 48 h; for CC50: read-out: LC50
[12] = tested on: BT-549; test: cells; conditions: Homo sapiens, BT-549, 48 h; for CC50: read-out: LC50
[13] = tested on: CAKI-1; test: NCI 60 cell lines, SRB assay: CAKI-1; type: cell-based, human; conditions: CAKI-1 (Renal Cancer), 48 hours
Description: The human tumor cell lines were grown in RPMI 1640 medium containing 5% fetal bovine serum (FBS) and 2 mM L-glutamine. The cells were inoculated into 96 well microtiter plates in 100 μL volumes at plating densities ranging from 5000 to 40000 cells/well depending on the doubling time of each individual cell line. After cell inoculation, the microtiter plates were incubated at 37° C., 5% CO2, 95% air, and 100% relative humidity for 24 hours prior to addition of the test compound. The following day, two plates of each cell line were fixed in situ with TCA to represent a measurement of cell population for each cell line at the time of sample addition (Tz). Each of the test compounds was dissolved in dimethyl sulfoxide at 400-times the desired final maximum test concentration, and the resulting solutions were stored frozen prior to use. At the time of sample addition, an aliquot of frozen concentrate was thawed and diluted to twice the desired final maximum test concentration with complete medium containing 50 μg/mL gentamicin. Additional four 10-fold serial dilutions were prepared to provide a total of five sample concentrations plus control. Aliquots of 100 μL of these different concentrations were added to the appropriate microtiter wells already containing 100 μL of medium, making up the required final sample concentrations. […] Bound stain was subsequently solubilized with 10 mM trizma base, and the absorbance was read on an automated plate reader at a wavelength of 515 nm. […] Using the seven absorbance measurements [time zero (Tz), control growth (C), and test growth in the presence of drug at the five concentration levels (Ti)], the percentage growth was calculated at each of the sample concentration levels. […] The test compound concentration resulting in total growth inhibition was calculated from Ti=Tz. […] In the event when the effect was not reached or was exceeded, the value for the respective parameter was expressed as greater or less than the maximum or minimum concentration tested.

[14] = tested on: SK-MEL-2; test: cells; conditions: Homo sapiens, SK-MEL-2, 48 h
[15] = tested on: IGROV1; test: cells; conditions: Homo sapiens, IGROV-1, 48 h
[16] = tested on: RXF 393; test: cells; conditions: Homo sapiens, RXF 393, 48 h
[17] = tested on: PC-3; test: cells; conditions: Homo sapiens, PC-3, 48 h

Structure (SMILES) | GI50 [1] | CC50 [1] | GI50 [2] | CC50 [2] | GI50 [3] | GI50 [4] | CC50 [4] | GI50 [5] | CC50 [5] | GI50 [6] | CC50 [6] | GI50 [7] | CC50 [7] | GI50 [8] | CC50 [8] | GI50 [9] | CC50 [9] | GI50 [10] | CC50 [10] | GI50 [11] | further results
Cc1cc(C)cc(-c2ccc3c(c2)[N+]([O-])=C2C3=C[C@@]34NC(=O)C5(CCCN5C3=O)CC4C2(C)C)c1 (stereo partly shown) [Biphenyl Analogue] | 0.131 µM | 64.3 µM | 0.159 µM | 79.1 µM | 0.118 µM | 0.279 µM | 3 µM | 0.296 µM | 3.47 µM | 0.206 µM | 3.58 µM | 0.0662 µM | 1.16 µM | 0.128 µM | 0.526 µM | 0.252 µM | 3.77 µM | 0.192 µM | 0.825 µM | 0.285 µM | CC50 [11]: 3.83 µM; GI50 [12]: 0.0953 µM; CC50 [12]: 1.7 µM
CN(C)c1cccc2c(S(=O)(=O)NCCCCCCCCCCOc3ccc4c(c3)[N+]([O-])=C3C4=C[C@@]45NC(=O)C6(CCCN6C4=O)CC5C3(C)C)cccc12 (stereo partly shown) [Dansyl Analogue] | – | – | – | – | – | – | – | – | – | – | – | – | – | – | – | – | – | – | – | – | GI50 [13]: 0.426 µM; TGI [13]: 2.79 µM; CC50 ([13]; read-out: LC50 (the source's name)): 20.8 µM
[2H]On1c2c(c3ccc4c(c31)C=CC(C)(C)O4)C(OC([2H])([2H])[2H])[C@@]13NC(=O)C4(CCCN4C1=O)CC3C2(C)C (stereo partly shown) [Deuterated Methanol Adduct] | 0.298 µM | 9.37 µM | 0.229 µM | 8.56 µM | 0.235 µM | 1.56 µM | 5.73 µM | 0.594 µM | 4.64 µM | 0.995 µM | 5.9 µM | 0.431 µM | 4.82 µM | 0.336 µM | 4.45 µM | 0.457 µM | 4.37 µM | 1.2 µM | 5.02 µM | 1.02 µM | CC50 ([3]; read-out: LC50): 9.37 µM; GI50 [14]: 0.901 µM; CC50 ([14]; read-out: LC50): 5.39 µM; GI50 [15]: 0.743 µM; CC50 ([15]; read-out: LC50): 4.68 µM; CC50 [11]: 4.82 µM; GI50 [16]: 0.283 µM; CC50 ([16]; read-out: LC50): 2.05 µM; GI50 [17]: 0.619 µM; CC50 ([17]; read-out: LC50): 5.12 µM; GI50 [12]: 0.598 µM; CC50 [12]: 4.69 µM
